According to PubChem BioAssay (NCI):
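Briefly, cells in 96-well plates were exposed to five compound concentrations for 48 h, and endpoints were estimated by linear interpolation. GI50 is the concentration that inhibits growth by half. Definition used: TGI = concentration required for complete inhibition of growth.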

Experiments:
Assay in all cases: DTP human tumour cell line panel, 48 h
[1] = system: HCC-2998 colon
[2] = system: KM20L2 colon
[3] = system: LXFL 529 NSCLC
[4] = system: MALME-3M melanoma
[5] = system: OVCAR-5 ovarian
[6] = system: OVCAR-8 ovarian
[7] = system: SF-268 CNS
[8] = system: SK-MEL-28 melanoma
[9] = system: SNB-19 CNS
[10] = system: NCI/ADR-RES ovarian

For `CC1(C)NC(=O)N(CCCCCCN2C(=O)NC(C)(C)C2=O)C1=O`, the TGI [1] was > 100 µM, the TGI [2] was > 100 µM and the TGI [3] was > 100 µM. The TGI [4] was > 100 µM, the TGI [5] was > 100 µM and the TGI [6] was > 100 µM. The TGI [7] was > 100 µM, the TGI [8] was > 100 µM and the TGI [9] was > 100 µM.
With `OCC1OC2c3ccccc3COC2C1OCc1ccccc1` (centres undefined) the TGI [1] was > 100 µM, the TGI [2] was > 100 µM and the TGI [3] was > 100 µM. The TGI [4] was > 100 µM, the TGI [5] was > 100 µM and the TGI [6] was > 100 µM. For the same compound, the TGI [8] was > 100 µM and the TGI [9] was > 100 µM.
For `O=C(Cc1ccccc1[N+](=O)[O-])C(CO)c1ccccc1[N+](=O)[O-]` (centres undefined), the TGI [1] was > 100 µM, the TGI [2] was > 100 µM and the TGI [3] was > 100 µM. For the same compound, the TGI [4] was > 100 µM, the TGI [5] was > 100 µM and the TGI [6] was > 100 µM. The TGI [7] was > 100 µM, the TGI [8] was > 100 µM and the TGI [9] was > 100 µM.
`N#CCCN(CCC#N)c1ccc(/C=C(/NC(=O)c2cc([N+](=O)[O-])ccc2Cl)C(=O)NN)cc1` was tested, and the TGI [1] was > 100 µM, the TGI [2] was > 100 µM and the TGI [3] was > 100 µM. The TGI [4] was > 100 µM, the TGI [5] was > 100 µM and the TGI [6] was > 100 µM. For the same compound, the TGI [7] was > 100 µM, the TGI [8] was > 100 µM and the TGI [9] was > 100 µM.
Compound `CC(=O)c1ccccc1NC(=O)C(=O)C(C(=O)c1ccc2ccccc2c1)C1OC(=O)c2ccccc21` (centres undefined) has a TGI [1] of 18.3 µM, a TGI [2] of 94 µM and a TGI [3] of 26.3 µM. For the same compound, the TGI [4] was 23.3 µM, the TGI [5] was 52.9 µM and the TGI [6] was 94.8 µM. It also gave a TGI [7] of 51 µM, a TGI [8] of 32.5 µM and a TGI [9] of 35.3 µM.
With `COC(=O)Cc1c([C@@]2(C)CCCC(C)(C)C2)ccc2c1C(=O)OC2` the TGI [3] was 27.2 µM, the TGI [4] was 38 µM and the TGI [6] was > 100 µM. It also gave a TGI [8] of 34.9 µM.
With `O=[N+]([O-])c1cc(-c2nc(=S)[nH][nH]2)ccc1O` the TGI [1] was > 100 µM, the TGI [2] was > 100 µM and the TGI [3] was > 100 µM. The TGI [4] was > 100 µM, the TGI [5] was > 100 µM and the TGI [7] was > 100 µM. For the same compound, the TGI [8] was > 100 µM and the TGI [9] was > 100 µM.
For `CC1CCC2C(C)C(=O)OC3OC4(C)CCC1C32OO4` (centres undefined), the TGI [1] was > 100 µM, the TGI [2] was > 100 µM and the TGI [3] was > 100 µM. For the same compound, the TGI [4] was > 100 µM, the GI50 [5] was > 100 µM and the TGI [5] was > 100 µM. For the same compound, the GI50 [6] was > 100 µM, the TGI [6] was > 100 µM and the TGI [7] was > 100 µM. For the same compound, the GI50 [8] was > 100 µM, the TGI [8] was > 100 µM and the GI50 [9] was > 100 µM. For the same compound, the TGI [9] was > 100 µM.
In the case of `NC1N=Nc2ccccc21` (centres undefined), the TGI [1] is reported as > 100 µM, the TGI [2] is reported as > 100 µM and the TGI [3] is reported as > 100 µM. For the same compound, the TGI [4] was > 100 µM, the TGI [5] was > 100 µM and the TGI [6] was > 100 µM. For the same compound, the TGI [7] was > 100 µM, the TGI [8] was > 100 µM and the TGI [9] was > 100 µM.
In the case of `COc1ccc2c(c1)[n+]([O-])c(-c1cccc(Cl)c1)c(N)[n+]2[O-]`, the TGI [2] is reported as > 100 µM, the TGI [4] is reported as > 100 µM and the TGI [5] is reported as > 100 µM. The TGI [6] was > 100 µM, the TGI [7] was > 100 µM and the TGI [8] was 83 µM. The TGI [9] was > 100 µM.
With `O=C(NC(=Nc1ccccc1)SCSC(=Nc1ccccc1)NC(=O)c1ccco1)c1ccco1` the TGI [1] was > 100 µM, the TGI [2] was > 100 µM and the TGI [3] was > 100 µM. The TGI [4] was > 100 µM, the TGI [5] was > 100 µM and the TGI [6] was > 100 µM. For the same compound, the TGI [7] was > 100 µM, the TGI [8] was > 100 µM and the TGI [9] was 79.1 µM.
With `CN1CC=C(c2cc(NC(=O)Nc3ccc(Oc4ccnc(NC(=O)C5CC5)c4)c(F)c3)cc(C(F)(F)F)c2)CC1` the GI50 [1] was 0.281 µM, the TGI [1] was 1.97 µM and the GI50 [4] was 0.289 µM. The TGI [4] was 1.13 µM, the GI50 [10] was 2.71 µM and the TGI [10] was 13.4 µM. It also gave a GI50 [5] of 0.289 µM, a TGI [5] of 2.44 µM and a GI50 [6] of 0.238 µM. It also gave a TGI [6] of 5.12 µM, a GI50 [7] of 0.206 µM and a TGI [7] of 1.41 µM. The GI50 [8] was 1.23 µM, the TGI [8] was 3.07 µM and the GI50 [9] was 0.227 µM. The TGI [9] was 1.48 µM.
In the case of `O=C(CCC(=O)Nc1ccc(Cl)c(Cl)c1)CC(=O)c1ccc2ccccc2c1`, the TGI [1] is reported as > 100 µM, the TGI [2] is reported as > 100 µM and the TGI [3] is reported as > 100 µM. For the same compound, the TGI [4] was > 100 µM, the TGI [5] was > 100 µM and the TGI [6] was > 100 µM. For the same compound, the TGI [7] was > 100 µM, the TGI [8] was > 100 µM and the TGI [9] was > 100 µM.
In the case of `COc1ccc(Nc2nc3cc(C(F)(F)F)ccc3nc2-c2ccccc2)cc1OC`, the TGI [1] is reported as > 100 µM, the TGI [3] is reported as > 100 µM and the TGI [4] is reported as 85.8 µM. The TGI [5] was > 100 µM, the TGI [6] was > 100 µM and the TGI [7] was > 100 µM. The TGI [8] was 63.8 µM.
`COC(=O)Oc1nn(C(=O)OC)c(=O)c2ccccc12` was tested, and the TGI [1] was > 100 µM, the TGI [4] was > 100 µM and the TGI [10] was > 100 µM. For the same compound, the TGI [5] was > 100 µM, the TGI [6] was > 100 µM and the TGI [7] was > 100 µM. For the same compound, the TGI [8] was > 100 µM and the TGI [9] was > 100 µM.
`O=C(/C=C/C12c3ccccc3C(c3ccccc31)C1C(=O)N(c3ccc(Cl)cc3)C(=O)C12)c1ccccn1` (centres undefined) showed a GI50 [1] of 0.244 µM, a TGI [1] of 0.658 µM and a GI50 [4] of 0.242 µM. For the same compound, the TGI [4] was 0.639 µM, the GI50 [10] was 0.332 µM and the TGI [10] was > 100 µM. The GI50 [5] was 0.309 µM, the TGI [5] was 1.14 µM and the GI50 [6] was 0.328 µM. The TGI [6] was > 100 µM, the GI50 [7] was 0.672 µM and the TGI [7] was > 28.8 µM. It also gave a GI50 [8] of 0.342 µM, a TGI [8] of 1.61 µM and a GI50 [9] of 0.426 µM. It also gave a TGI [9] of 2 µM.
Work on `CCCCCCC1N=C(N)N=C(N)N1c1cccc(Cl)c1` (centres undefined) yielded a GI50 [1] of 0.668 µM, a TGI [1] of 11.2 µM and a GI50 [4] of 0.765 µM. For the same compound, the TGI [4] was 15.6 µM, the GI50 [10] was 75.8 µM and the TGI [10] was > 100 µM. The GI50 [5] was 0.794 µM, the TGI [5] was 23.1 µM and the GI50 [6] was 0.612 µM. For the same compound, the TGI [6] was 19.5 µM, the GI50 [7] was 0.0591 µM and the TGI [7] was 11.5 µM. It also gave a GI50 [8] of 2.34 µM, a TGI [8] of 17.4 µM and a GI50 [9] of 0.255 µM. It also gave a TGI [9] of 8.58 µM.
`Cc1ccc(-c2nc3nc(-c4ccc(F)cc4)nc(N4CCNCC4)c3o2)cc1` gave a GI50 [1] of 4.11 µM, a TGI [1] of 15.8 µM and a GI50 [4] of 6.94 µM. For the same compound, the TGI [4] was 19.6 µM, the GI50 [10] was 2.11 µM and the TGI [10] was 4.47 µM. The GI50 [5] was 1.97 µM, the TGI [5] was 4.54 µM and the GI50 [6] was 2.35 µM. It also gave a TGI [6] of 5.82 µM, a GI50 [7] of 1.93 µM and a TGI [7] of 4.35 µM. The GI50 [8] was 14.9 µM, the TGI [8] was 28.7 µM and the GI50 [9] was 5.97 µM. The TGI [9] was 19.8 µM.
For `COc1cc2c3c(n(CCCN4CCNCC4)c(=O)c2cc1OC)-c1cc2c(cc1C3=O)OCO2`, the GI50 [1] was 1.15 µM, the TGI [1] was 3.98 µM and the GI50 [4] was 2.55 µM. The TGI [4] was 12.2 µM, the GI50 [10] was 2.77 µM and the TGI [10] was 11.5 µM. The GI50 [5] was 1.75 µM, the TGI [5] was 6.77 µM and the GI50 [6] was 0.0803 µM. For the same compound, the TGI [6] was 1.06 µM, the GI50 [7] was 0.795 µM and the TGI [7] was 8.49 µM. It also gave a GI50 [8] of 4.11 µM, a TGI [8] of 19.6 µM and a GI50 [9] of 0.835 µM. For the same compound, the TGI [9] was 12.4 µM.
`O=C1C(=c2ccc(=C3C(=O)c4ccc([N+](=O)[O-])cc4[N+]3=O)cc2)N([O-])c2cc([N+](=O)[O-])ccc21` was tested, and the GI50 [1] was > 100 µM, the TGI [1] was > 100 µM and the GI50 [2] was > 100 µM. For the same compound, the TGI [2] was > 100 µM, the GI50 [3] was > 100 µM and the TGI [3] was > 100 µM. The GI50 [4] was > 100 µM, the TGI [4] was > 100 µM and the GI50 [5] was > 100 µM. The TGI [5] was > 100 µM, the GI50 [6] was > 100 µM and the TGI [6] was > 100 µM. For the same compound, the GI50 [8] was > 100 µM, the TGI [8] was > 100 µM and the GI50 [9] was > 100 µM. For the same compound, the TGI [9] was > 100 µM.
